In assay [1] the target is MAP kinase-activated protein kinase 5 (Homo sapiens) (UniProt Q8IW41). Nature of the assay: Residual activity of human PRAK at 10 uM after 60 mins by TR-FRET assay. (In general: In TR-FRET formats the signal depends on donor and acceptor labels being close together.)
Assay [2] has as its system Angiopoietin-1 receptor (Homo sapiens), Q02763 [R849W]. Nature of the assay: Inhibition of human Tie2 R849W mutant at 10 uM after 60 mins by TR-FRET assay; values are per cent of control.
The target of assay [3] is Serine/threonine-protein kinase 17A (Homo sapiens) (UniProt Q9UEE5). Nature of the assay: Inhibition of human DRAK1 at 10 uM after 60 mins by TR-FRET assay; values are per cent of control.
Sequence of Serine/threonine-protein kinase 17A (Homo sapiens) (Q9UEE5 whole entry): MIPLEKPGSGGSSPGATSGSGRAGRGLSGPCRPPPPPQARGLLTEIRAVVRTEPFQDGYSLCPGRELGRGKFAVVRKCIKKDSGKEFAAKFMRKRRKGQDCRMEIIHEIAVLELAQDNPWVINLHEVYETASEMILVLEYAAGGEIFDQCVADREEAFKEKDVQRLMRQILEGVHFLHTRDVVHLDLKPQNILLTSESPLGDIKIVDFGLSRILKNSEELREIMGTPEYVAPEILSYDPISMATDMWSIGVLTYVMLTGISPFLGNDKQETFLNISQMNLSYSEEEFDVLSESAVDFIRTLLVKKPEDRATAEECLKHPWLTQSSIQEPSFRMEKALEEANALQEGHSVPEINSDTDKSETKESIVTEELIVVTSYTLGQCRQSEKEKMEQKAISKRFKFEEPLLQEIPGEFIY
Assay [4] has as its target Insulin receptor-related protein (Homo sapiens) (UniProt P14616). Nature of the assay: Inhibition of human IRR at 10 uM after 60 mins by TR-FRET assay; values are per cent of control.
In assay [5] the target is Tyrosine-protein kinase JAK2 (Homo sapiens) (UniProt O60674). Nature of the assay: Inhibition of human JAK2 at 10 uM after 60 mins by TR-FRET assay. Particulars: values are per cent of control.
Assay [6] has as its target Serine/threonine-protein kinase MRCK beta (Homo sapiens) (UniProt Q9Y5S2). Nature of the assay: Inhibition of human MRCKbeta at 10 uM after 60 mins by TR-FRET assay; values are per cent of control.
Assay [7] has as its target T1, Aurora kinase A (Homo sapiens) (UniProt O14965).
T1 sequence (whole entry): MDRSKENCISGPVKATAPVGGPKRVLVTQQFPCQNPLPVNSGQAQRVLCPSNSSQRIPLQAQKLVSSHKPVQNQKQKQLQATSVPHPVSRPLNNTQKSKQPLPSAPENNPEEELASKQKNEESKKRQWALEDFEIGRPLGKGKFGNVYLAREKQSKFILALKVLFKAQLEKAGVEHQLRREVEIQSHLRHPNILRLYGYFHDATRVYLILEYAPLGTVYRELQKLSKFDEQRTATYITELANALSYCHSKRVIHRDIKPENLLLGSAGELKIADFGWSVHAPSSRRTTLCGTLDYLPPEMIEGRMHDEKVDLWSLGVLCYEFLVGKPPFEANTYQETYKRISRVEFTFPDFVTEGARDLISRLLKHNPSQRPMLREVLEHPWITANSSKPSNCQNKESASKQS
Nature of the assay: Inhibition of human Aurora-A at 10 uM after 60 mins by TR-FRET assay; values are per cent of control.

The target of assay [8] is Muscle, skeletal receptor tyrosine-protein kinase (Homo sapiens) (UniProt O15146). Nature of the assay: Inhibition of human MuSK at 10 uM after 60 mins by TR-FRET assay; values are per cent of control.
Sequence of Muscle, skeletal receptor tyrosine-protein kinase (Homo sapiens) (O15146 whole entry): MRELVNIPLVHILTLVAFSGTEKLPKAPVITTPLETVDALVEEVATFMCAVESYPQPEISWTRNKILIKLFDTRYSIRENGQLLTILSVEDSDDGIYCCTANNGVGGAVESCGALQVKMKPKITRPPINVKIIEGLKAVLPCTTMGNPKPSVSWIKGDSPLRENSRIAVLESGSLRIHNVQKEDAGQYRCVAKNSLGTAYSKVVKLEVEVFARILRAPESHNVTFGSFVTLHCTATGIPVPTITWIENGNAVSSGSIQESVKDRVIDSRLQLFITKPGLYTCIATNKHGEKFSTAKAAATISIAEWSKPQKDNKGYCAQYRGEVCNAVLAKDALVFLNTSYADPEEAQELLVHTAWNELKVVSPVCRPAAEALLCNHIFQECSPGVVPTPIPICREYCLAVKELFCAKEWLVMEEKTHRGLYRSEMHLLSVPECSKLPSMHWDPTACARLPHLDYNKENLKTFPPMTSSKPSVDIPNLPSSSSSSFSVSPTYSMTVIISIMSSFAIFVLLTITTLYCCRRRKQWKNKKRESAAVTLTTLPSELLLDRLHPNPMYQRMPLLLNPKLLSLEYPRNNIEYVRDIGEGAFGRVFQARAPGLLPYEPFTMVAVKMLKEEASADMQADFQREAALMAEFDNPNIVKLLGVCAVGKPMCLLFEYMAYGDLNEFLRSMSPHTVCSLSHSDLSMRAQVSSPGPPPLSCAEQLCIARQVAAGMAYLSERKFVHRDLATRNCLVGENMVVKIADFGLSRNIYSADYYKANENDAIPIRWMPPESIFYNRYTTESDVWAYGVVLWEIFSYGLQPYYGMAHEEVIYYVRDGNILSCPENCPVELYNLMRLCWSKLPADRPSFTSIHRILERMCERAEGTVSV
Assay [9] deals with Cyclin-dependent kinase 1/cyclin B (Homo sapiens) (UniProt P06493+P14635+Q8WWL7+O95067). Nature of the assay: Residual activity of human CDK1/cyclinB at 10 uM after 60 mins by TR-FRET assay.
Assay [10] deals with Serine/threonine-protein kinase PLK1 (Homo sapiens) (UniProt P53350). Nature of the assay: Inhibition of human Plk1 at 10 uM after 60 mins by TR-FRET assay; values are per cent of control.
In assay [11] the target is Serine/threonine-protein kinase TAO3 (Homo sapiens) (UniProt Q9H2K8). Nature of the assay: Inhibition of human TAO3 at 10 uM after 60 mins by TR-FRET assay; values are per cent of control.
Sequence of Serine/threonine-protein kinase TAO3 (Homo sapiens) (Q9H2K8 whole entry): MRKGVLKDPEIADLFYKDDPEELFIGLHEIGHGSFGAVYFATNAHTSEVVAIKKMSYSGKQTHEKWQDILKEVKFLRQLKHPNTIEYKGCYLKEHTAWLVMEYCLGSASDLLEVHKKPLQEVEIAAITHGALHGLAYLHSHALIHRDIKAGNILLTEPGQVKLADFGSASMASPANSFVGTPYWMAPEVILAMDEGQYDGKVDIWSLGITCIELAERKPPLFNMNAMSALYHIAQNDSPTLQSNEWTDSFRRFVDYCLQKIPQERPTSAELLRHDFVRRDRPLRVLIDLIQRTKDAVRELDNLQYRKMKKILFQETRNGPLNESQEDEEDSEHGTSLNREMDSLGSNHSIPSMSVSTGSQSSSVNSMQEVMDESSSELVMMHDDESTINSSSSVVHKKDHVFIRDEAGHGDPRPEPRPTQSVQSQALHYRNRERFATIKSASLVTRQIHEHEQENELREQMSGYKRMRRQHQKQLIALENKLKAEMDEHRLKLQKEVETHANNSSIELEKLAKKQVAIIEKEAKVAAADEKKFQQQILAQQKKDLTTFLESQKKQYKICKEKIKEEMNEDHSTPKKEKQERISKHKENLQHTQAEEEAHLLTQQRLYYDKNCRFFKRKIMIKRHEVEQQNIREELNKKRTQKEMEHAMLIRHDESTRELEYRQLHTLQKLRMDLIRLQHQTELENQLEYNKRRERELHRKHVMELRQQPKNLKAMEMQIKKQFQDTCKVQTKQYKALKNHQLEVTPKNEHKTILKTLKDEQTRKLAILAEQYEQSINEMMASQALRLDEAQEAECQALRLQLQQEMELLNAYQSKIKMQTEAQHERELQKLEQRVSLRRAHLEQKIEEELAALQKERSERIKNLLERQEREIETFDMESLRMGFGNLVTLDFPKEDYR
Assay [12] has as its target Misshapen-like kinase 1 (Homo sapiens) (UniProt Q8N4C8). Nature of the assay: Inhibition of human MINK at 10 uM after 60 mins by TR-FRET assay; values are per cent of control.
Assay [13] concerns the target Serine/threonine-protein kinase Sgk2 (Homo sapiens) (UniProt Q9HBY8). Nature of the assay: Inhibition of human SGK2 at 10 uM after 60 mins by TR-FRET assay; values are per cent of control.
Assay [14] has as its target Mitogen-activated protein kinase 10 (Homo sapiens, UniProt P53779). Nature of the assay: Inhibition of human JNK3 at 10 uM after 60 mins by TR-FRET assay; values are per cent of control.
Assay [15] has as its target Protein kinase C gamma type (Homo sapiens) (UniProt P05129). Nature of the assay: Inhibition of human PKCgamma at 10 uM after 60 mins by TR-FRET assay; values are per cent of control.
Assay [16] concerns Epidermal growth factor receptor (Homo sapiens), P00533 [T790M]. Nature of the assay: Inhibition of human EGFR T790M mutant at 10 uM after 60 mins by TR-FRET assay. In kind it is protein assay. Particulars: values are per cent of control.
Sequence of Epidermal growth factor receptor (Homo sapiens), P00533 [T790M] (P00533 whole entry T790M): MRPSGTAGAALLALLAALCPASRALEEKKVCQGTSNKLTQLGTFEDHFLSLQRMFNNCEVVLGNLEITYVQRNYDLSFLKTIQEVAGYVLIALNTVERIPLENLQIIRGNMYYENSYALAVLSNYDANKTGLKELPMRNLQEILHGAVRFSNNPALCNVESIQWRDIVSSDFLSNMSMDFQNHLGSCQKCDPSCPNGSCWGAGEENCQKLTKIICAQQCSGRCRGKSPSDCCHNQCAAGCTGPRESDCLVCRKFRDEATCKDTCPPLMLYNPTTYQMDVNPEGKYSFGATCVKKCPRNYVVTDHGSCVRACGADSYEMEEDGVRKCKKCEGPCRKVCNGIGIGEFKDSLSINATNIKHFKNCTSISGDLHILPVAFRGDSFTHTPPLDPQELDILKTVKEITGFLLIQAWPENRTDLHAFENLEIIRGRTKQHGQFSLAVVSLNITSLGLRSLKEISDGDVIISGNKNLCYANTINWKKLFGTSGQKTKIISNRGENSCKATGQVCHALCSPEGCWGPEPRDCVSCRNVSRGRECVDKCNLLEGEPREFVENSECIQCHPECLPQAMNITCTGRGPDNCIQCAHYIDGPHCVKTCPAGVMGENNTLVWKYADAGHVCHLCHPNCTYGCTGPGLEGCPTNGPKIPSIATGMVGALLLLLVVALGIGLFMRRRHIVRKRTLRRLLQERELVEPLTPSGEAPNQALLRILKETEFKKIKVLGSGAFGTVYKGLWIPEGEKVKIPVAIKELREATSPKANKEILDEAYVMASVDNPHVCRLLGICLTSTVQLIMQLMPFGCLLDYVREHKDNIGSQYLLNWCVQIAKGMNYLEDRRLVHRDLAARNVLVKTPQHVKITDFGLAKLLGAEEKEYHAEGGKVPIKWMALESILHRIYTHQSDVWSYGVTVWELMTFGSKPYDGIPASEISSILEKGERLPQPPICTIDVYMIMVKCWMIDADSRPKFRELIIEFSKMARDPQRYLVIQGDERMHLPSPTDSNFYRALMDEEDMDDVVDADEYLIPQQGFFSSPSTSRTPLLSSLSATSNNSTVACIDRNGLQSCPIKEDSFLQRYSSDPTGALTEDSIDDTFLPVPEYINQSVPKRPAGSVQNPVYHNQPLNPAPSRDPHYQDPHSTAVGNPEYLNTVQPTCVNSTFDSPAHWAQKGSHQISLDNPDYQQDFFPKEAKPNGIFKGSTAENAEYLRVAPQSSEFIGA
Assay [17] addresses CDK6/cyclin D3 (Homo sapiens) (UniProt P30281+Q00534). Nature of the assay: Inhibition of human CDK6/cyclinD3 at 10 uM after 60 mins by TR-FRET assay; values are per cent of control.
Assay [18] relates to Mast/stem cell growth factor receptor Kit (Homo sapiens), P10721 [D816H]. Nature of the assay: Inhibition of human c-Kit D816H mutant at 10 uM after 60 mins by TR-FRET assay; values are per cent of control.
Assay [19] concerns the target Vascular endothelial growth factor receptor 2 (Homo sapiens) (UniProt P35968). Nature of the assay: Inhibition of human KDR at 10 uM after 60 mins by TR-FRET assay; values are per cent of control.
The target in assay [20] is Serine/threonine-protein kinase PLK2 (Homo sapiens) (UniProt Q9NYY3). Nature of the assay: Inhibition of human Snk at 10 uM after 60 mins by TR-FRET assay. Particulars: values are per cent of control.
Assay [21] addresses RAC-beta serine/threonine-protein kinase (Homo sapiens) (UniProt P31751). Nature of the assay: Inhibition of human PKBbeta at 10 uM after 60 mins by TR-FRET assay; values are per cent of control.
For assay [22], the target named is Tyrosine-protein kinase Mer (Homo sapiens) (UniProt Q12866). Nature of the assay: Inhibition of human Mer at 10 uM after 60 mins by TR-FRET assay; values are per cent of control.
Assay [23] has as its target Mitogen-activated protein kinase kinase kinase kinase 2 (Homo sapiens) (UniProt Q12851). Nature of the assay: Inhibition of human GCK at 10 uM after 60 mins by TR-FRET assay; values are per cent of control.
Assay [24] has as its target Activated CDC42 kinase 1 (Homo sapiens) (UniProt Q07912). Nature of the assay: Inhibition of human ACK1 at 10 uM after 60 mins by TR-FRET assay; values are per cent of control.

Results on one compound are retold here after ChEMBL document CHEMBL1641539 (Bioorg Med Chem Lett, 2011).

Sequence of Misshapen-like kinase 1 (Homo sapiens) (Q8N4C8 whole entry, looked up): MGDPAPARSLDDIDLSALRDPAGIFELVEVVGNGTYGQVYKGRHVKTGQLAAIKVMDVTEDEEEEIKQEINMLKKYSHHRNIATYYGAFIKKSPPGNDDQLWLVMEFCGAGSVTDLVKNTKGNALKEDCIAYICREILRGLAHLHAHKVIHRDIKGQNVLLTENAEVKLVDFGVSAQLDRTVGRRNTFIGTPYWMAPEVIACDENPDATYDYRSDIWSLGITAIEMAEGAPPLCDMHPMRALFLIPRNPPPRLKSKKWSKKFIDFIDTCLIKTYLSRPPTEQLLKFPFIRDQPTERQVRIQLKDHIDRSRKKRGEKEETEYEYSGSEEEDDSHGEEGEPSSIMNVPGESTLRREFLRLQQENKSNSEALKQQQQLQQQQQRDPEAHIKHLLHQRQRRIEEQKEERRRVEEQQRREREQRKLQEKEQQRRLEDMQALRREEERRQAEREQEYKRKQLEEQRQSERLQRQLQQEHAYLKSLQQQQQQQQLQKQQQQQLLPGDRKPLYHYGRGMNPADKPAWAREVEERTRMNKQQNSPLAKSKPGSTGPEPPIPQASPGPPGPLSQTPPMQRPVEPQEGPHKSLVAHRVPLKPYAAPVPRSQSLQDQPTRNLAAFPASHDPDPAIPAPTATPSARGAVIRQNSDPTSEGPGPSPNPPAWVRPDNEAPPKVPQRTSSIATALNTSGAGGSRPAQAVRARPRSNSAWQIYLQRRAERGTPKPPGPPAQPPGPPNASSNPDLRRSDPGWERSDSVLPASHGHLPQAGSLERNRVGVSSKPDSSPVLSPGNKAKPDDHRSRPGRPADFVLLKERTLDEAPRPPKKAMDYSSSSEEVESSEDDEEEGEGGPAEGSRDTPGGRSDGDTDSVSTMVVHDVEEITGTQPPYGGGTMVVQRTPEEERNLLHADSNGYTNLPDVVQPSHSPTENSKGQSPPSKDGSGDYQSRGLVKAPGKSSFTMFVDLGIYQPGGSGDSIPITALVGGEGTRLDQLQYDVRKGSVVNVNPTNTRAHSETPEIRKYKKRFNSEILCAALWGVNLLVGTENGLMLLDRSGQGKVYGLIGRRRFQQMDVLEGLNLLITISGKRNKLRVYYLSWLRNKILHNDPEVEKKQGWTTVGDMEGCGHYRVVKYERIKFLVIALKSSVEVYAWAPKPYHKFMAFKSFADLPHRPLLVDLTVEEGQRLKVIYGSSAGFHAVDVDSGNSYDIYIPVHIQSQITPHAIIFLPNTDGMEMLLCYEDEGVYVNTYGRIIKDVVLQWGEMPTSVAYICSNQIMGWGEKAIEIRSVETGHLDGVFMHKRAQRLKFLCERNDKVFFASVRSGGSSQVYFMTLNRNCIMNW
Sequence of Serine/threonine-protein kinase Sgk2 (Homo sapiens) (Q9HBY8 whole entry): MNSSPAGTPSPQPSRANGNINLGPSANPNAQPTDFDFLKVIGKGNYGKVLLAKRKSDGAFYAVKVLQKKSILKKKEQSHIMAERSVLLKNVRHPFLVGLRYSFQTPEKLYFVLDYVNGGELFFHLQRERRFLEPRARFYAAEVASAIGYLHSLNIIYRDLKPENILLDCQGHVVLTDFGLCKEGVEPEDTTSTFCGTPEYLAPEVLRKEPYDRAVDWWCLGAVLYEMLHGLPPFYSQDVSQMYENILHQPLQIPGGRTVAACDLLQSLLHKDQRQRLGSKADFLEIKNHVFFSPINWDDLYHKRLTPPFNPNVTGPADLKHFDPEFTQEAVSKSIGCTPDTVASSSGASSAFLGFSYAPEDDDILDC

As for `S=c1[nH]nc(-c2ccncc2)n1-c1ccc2ccccc2c1`, the residual activity worked out at 119% in assay [1]; 94% in [2]; 96% in [3]; 111% in assay [4]; 110% in assay [5]; 106% in assay [6]. The residual activity in [7] amounted to 99%; in assay [8], 114%; in [9], 101%; in [10], 90%; in assay [11], 91%; in [12], 80%. Besides, the residual activity was determined as 119% in [13]; 4% in [14]; 102% in assay [15]; 98% in assay [16]; 102% in [17]; 114% in [18]. In addition, the residual activity in [19] was found to be 105%; in assay [20], 113%; in [21], 110%; in assay [22], 107%; in assay [23], 103%; in assay [24] it was 103%.
